{
  "source": "patent US6395745B1",
  "about": "“Alkaloid halide salts of swainsonine and methods of use” (priority 1997, dated 2002)",
  "target": "T1, Golgi mannosidase II in MDAY-D2 tumor cells (Mus musculus, UniProt P27046)",
  "T1 construct": "endogenous in cells; host or cells: MDAY-D2 tumor cells",
  "T1 sequence (P27046 1-1150)": "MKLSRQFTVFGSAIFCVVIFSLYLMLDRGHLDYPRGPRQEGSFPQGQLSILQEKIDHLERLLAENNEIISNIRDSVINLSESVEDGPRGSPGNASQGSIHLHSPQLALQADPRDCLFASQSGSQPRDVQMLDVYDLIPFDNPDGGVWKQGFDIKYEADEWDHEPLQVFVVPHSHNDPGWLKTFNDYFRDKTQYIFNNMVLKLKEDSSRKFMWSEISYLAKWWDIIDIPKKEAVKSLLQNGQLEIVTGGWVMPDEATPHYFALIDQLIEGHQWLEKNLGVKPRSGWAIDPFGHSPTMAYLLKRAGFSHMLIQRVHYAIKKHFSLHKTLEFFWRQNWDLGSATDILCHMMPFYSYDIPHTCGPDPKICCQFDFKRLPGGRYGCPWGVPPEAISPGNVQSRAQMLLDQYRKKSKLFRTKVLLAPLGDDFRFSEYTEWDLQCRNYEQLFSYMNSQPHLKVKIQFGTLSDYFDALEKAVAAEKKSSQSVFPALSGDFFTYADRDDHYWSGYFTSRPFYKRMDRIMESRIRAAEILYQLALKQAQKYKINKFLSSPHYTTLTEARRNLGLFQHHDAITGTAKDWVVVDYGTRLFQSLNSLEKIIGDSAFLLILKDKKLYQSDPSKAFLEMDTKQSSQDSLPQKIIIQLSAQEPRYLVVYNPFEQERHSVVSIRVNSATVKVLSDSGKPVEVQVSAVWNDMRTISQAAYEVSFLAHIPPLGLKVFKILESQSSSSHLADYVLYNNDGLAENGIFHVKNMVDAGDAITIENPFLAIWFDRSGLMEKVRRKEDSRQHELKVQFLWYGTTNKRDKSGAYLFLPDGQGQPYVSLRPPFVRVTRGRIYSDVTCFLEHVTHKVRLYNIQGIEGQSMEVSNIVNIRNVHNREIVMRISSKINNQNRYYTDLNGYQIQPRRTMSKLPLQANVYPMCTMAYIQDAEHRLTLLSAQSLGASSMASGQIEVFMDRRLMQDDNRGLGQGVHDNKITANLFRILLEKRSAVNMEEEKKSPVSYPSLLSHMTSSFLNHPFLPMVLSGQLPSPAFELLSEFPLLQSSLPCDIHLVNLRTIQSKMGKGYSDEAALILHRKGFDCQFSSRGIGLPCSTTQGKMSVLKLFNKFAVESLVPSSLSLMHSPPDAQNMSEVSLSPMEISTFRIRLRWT",
  "assay": "L-PHA cell assay for inhibition of mannosidase II in cells (alkaline phosphatase readout)",
  "type": "cell-based, murine",
  "method": "The test compound swainsonine hydrochloride is prepared by 0.5 serial dilution of a 40 μM stock in 50 μl of 5% fetal bovine serum (FBS) in minimum essential medium (MEM). To 50 μl of diluted test samples in 96 well plates, 10,000 MDAY-D2 tumor cells in 50 μl of 5% FBS in MEM is added to each well. The samples are incubated at 37° C. overnight in a 5% CO2 incubator. Test wells are prepared in duplicate for the addition of 25 μl/well of either 5% FBS in MEM or 5% FBS in MEM containing 100 μg/ml of L-PHA. Samples are again incubated at 37° C. overnight in a 5% CO2 incubator. The viability and/or proliferation of the cells in each well is measured using phenazine methylsulfate (PMS) and (3(4,5-dimethylthiazol-2-yl-5-(3-carboxymethoxyphenyl)-2,4,sulfophenyl)-2H tetrazolium salt (“MTS”) as described in the instructions of the Promega CellTiter 96 AQ kit. The absorption is read at 490 nm. The loss of L-PHA toxicity is directly related to entry of the drug into the cells and to inhibition of Golgi mannosidase II, and loss of L-PHA binding carbohydrate structures on the cells surface.\nCells. […]\nAlkaline Phosphatase Assay. […] After 15-30 min of colour development, absorbance of the chromogenic product para-nitrophenol was measured at […] using a multiwell scanning photometer (Thermomax Multiplate Reader, Molecular Devices). […]",
  "data": [
    {"smiles": "Cl.O[C@H]1[C@H]2[C@H](O)CCCN2C[C@@H]1O", "note": "[swainsonine hydrochloride, (−)-(1S,2S,8R,8aR)-1,2,8-trihydroxyoctahydro-indolizidine hydrochloride salt]", "values": [
      {"measurement": "IC50", "result": "57 ± 10", "unit": "nM"}
    ]}
  ]
}
